{"source": "patent US20110189204A1", "about": "“Treatment of Disease with Proteasone Inhibitors” (priority 2009, published 2011)", "key": {"[1]": {"system": "20S proteasome (chymotryptic activity) in whole blood", "assay": "20S proteasome inhibition in whole blood, daily (5/7 days) dosing (TOX8394)", "assay_type": "in vivo, Cynomolgus monkeys", "method": "(§1) For each study, the 20S proteasome activity in whole blood was determined, as described in Lightcap, Clin. Chem., 46:673 (2000). The chymotryptic activity was assayed by measuring the rate at which the proteasome hydrolyzed an amide bond in a small fluorescence tagged polypeptide substrate. The specific activity (Spa) was normalized to the amount of protein present in the lysate."}, "[2]": {"system": "20S proteasome (chymotryptic activity) in whole blood", "assay": "20S proteasome inhibition in whole blood, bi-weekly/weekly dosing (TOX7345)", "assay_type": "in vivo, Cynomolgus monkeys", "method": "as §1"}, "[3]": {"assay": "Plasma pharmacokinetics, bi-weekly/weekly subcutaneous dosing (TOX7345)", "quoted_text": "For bi-weekly dosing treatment (TOX 7345), a group of 3 male and 3 female Cynomolgus monkeys were dosed for 4 cycles.\nThe test substance and vehicle were freshly prepared on the day of use.\nFor each study, the values of the time to maximum plasma concentration (Tmax), the maximum plasma concentration (Cmax) were determined by visual inspection of the data. The area-under-the plasma-concentration-time curve (AUC) was estimated by the linear trapezoidal rule. Plasma samples were analyzed using a validated LC/MS/MS method with a lower quantification limit of about 0.5 ng/ml."}, "in vivo": {"assay": "in vivo", "conditions": "both, cynomolgus monkey, plasma"}, "[4]": {"conditions": "day 54, 0.0166 mg/kg sc daily (5/7 days)"}, "[5]": {"conditions": "day 54, 0.0333 mg/kg sc daily (5/7 days)"}, "[6]": {"conditions": "day 54, 0.05 mg/kg sc daily (5/7 days)"}, "[7]": {"conditions": "day 1, 0.075 mg/kg sc bi-weekly"}, "[8]": {"conditions": "day 32, 0.075 mg/kg sc bi-weekly"}, "[9]": {"conditions": "day 74, 0.075 mg/kg sc bi-weekly"}}, "data": [{"smiles": "CC(C)C[C@H](NC(=O)[C@H](Cc1ccccc1)NC(=O)c1cnccn1)B(O)O", "note": "[bortezomib]", "values": [{"measurement": "Tmax (time of occurrence of Emax)", "setting": "[1]; day 3, 0.05 mg/kg sc daily (5/7 days)", "result": 30, "unit": "min"}, {"measurement": "AUE0-24 h", "setting": "[1]; [4]", "result": "481 (103) % Inhibition · time"}, {"measurement": "Emax (% proteasome inhibition)", "setting": "[1]; [4]", "result": 38, "unit": "%"}, {"measurement": "Tmax (time of occurrence of Emax)", "setting": "[1]; [4]", "result": 30, "unit": "min"}, {"measurement": "AUE0-24 h", "setting": "[1]; [5]", "result": "895 (125) % Inhibition · time"}, {"measurement": "Emax (% proteasome inhibition)", "setting": "[1]; [5]", "result": 62, "unit": "%"}, {"measurement": "Tmax (time of occurrence of Emax)", "setting": "[1]; [5]", "result": 30, "unit": "min"}, {"measurement": "AUE0-24 h", "setting": "[1]; [6]", "result": "1039 (114) % Inhibition · time"}, {"measurement": "Emax (% proteasome inhibition)", "setting": "[1]; [6]", "result": 73, "unit": "%"}, {"measurement": "Tmax (time of occurrence of Emax)", "setting": "[1]; [6]", "result": 30, "unit": "min"}, {"measurement": "time of maximal proteasome inhibition after dosing", "setting": "[1]; on average, sc administration", "result": "about 0.5 h"}, {"measurement": "AUE0-72h", "setting": "[2]; about 1.2 mg/m^2 bi-weekly", "result": 1500, "unit": "%. h"}, {"measurement": "strongest inhibition (Emax)", "setting": "[2]; bi-weekly regimen, 0.1 mg/kg", "result": 74, "unit": "%"}, {"measurement": "cumulative weekly AUE", "setting": "[2]; bi-weekly schedule, about 1.2 mg/m^2", "result": 3000, "unit": "%. h"}, {"measurement": "AUE0-24 h", "setting": "[2]; [7]", "result": "585 (87) % Inhibition · time"}, {"measurement": "Emax (% proteasome inhibition)", "setting": "[2]; [7]", "result": 63, "unit": "%"}, {"measurement": "Tmax (time of occurrence of Emax)", "setting": "[2]; [7]", "result": 30, "unit": "min"}, {"measurement": "AUE0-24 h", "setting": "[2]; day 1, 0.1 mg/kg sc bi-weekly", "result": "926 (99) % Inhibition · time"}, {"measurement": "Emax (% proteasome inhibition)", "setting": "[2]; day 1, 0.1 mg/kg sc bi-weekly", "result": 74, "unit": "%"}, {"measurement": "Tmax (time of occurrence of Emax)", "setting": "[2]; day 1, 0.1 mg/kg sc bi-weekly", "result": 30, "unit": "min"}, {"measurement": "AUE0-24 h", "setting": "[2]; day 1, 0.166 mg/kg sc weekly", "result": "931 (124) % Inhibition · time"}, {"measurement": "Emax (% proteasome inhibition)", "setting": "[2]; day 1, 0.166 mg/kg sc weekly", "result": 78, "unit": "%"}, {"measurement": "Tmax (time of occurrence of Emax)", "setting": "[2]; day 1, 0.166 mg/kg sc weekly", "result": 60, "unit": "min"}, {"measurement": "AUE0-24 h", "setting": "[2]; [8]", "result": "1086 (158) % Inhibition · time"}, {"measurement": "Emax (% proteasome inhibition)", "setting": "[2]; [8]", "result": 68, "unit": "%"}, {"measurement": "Tmax (time of occurrence of Emax)", "setting": "[2]; [8]", "result": 30, "unit": "min"}, {"measurement": "AUE0-24 h", "setting": "[2]; day 32, 0.1 mg/kg sc bi-weekly", "result": "1454 (201) % Inhibition · time"}, {"measurement": "Emax (% proteasome inhibition)", "setting": "[2]; day 32, 0.1 mg/kg sc bi-weekly", "result": 71, "unit": "%"}, {"measurement": "Tmax (time of occurrence of Emax)", "setting": "[2]; day 32, 0.1 mg/kg sc bi-weekly", "result": 30, "unit": "min"}, {"measurement": "AUE0-24 h", "setting": "[2]; day 50, 0.166 mg/kg sc weekly", "result": "2152 (222) % Inhibition · time"}, {"measurement": "Emax (% proteasome inhibition)", "setting": "[2]; day 50, 0.166 mg/kg sc weekly", "result": 78, "unit": "%"}, {"measurement": "Tmax (time of occurrence of Emax)", "setting": "[2]; day 50, 0.166 mg/kg sc weekly", "result": 30, "unit": "min"}, {"measurement": "AUE0-24 h", "setting": "[2]; [9]", "result": "1111 (116) % Inhibition · time"}, {"measurement": "Emax (% proteasome inhibition)", "setting": "[2]; [9]", "result": 67, "unit": "%"}, {"measurement": "Tmax (time of occurrence of Emax)", "setting": "[2]; [9]", "result": 30, "unit": "min"}, {"measurement": "AUE0-24 h", "setting": "[2]; day 74, 0.1 mg/kg sc bi-weekly", "result": "1584 (210) % Inhibition · time"}, {"measurement": "Emax (% proteasome inhibition)", "setting": "[2]; day 74, 0.1 mg/kg sc bi-weekly", "result": 72, "unit": "%"}, {"measurement": "Tmax (time of occurrence of Emax)", "setting": "[2]; day 74, 0.1 mg/kg sc bi-weekly", "result": 30, "unit": "min"}, {"measurement": "AUE0-24 h", "setting": "[2]; day 78, 0.166 mg/kg sc weekly", "result": "1468 (219) % Inhibition · time"}, {"measurement": "Emax (% proteasome inhibition)", "setting": "[2]; day 78, 0.166 mg/kg sc weekly", "result": 77, "unit": "%"}, {"measurement": "Tmax (time of occurrence of Emax)", "setting": "[2]; day 78, 0.166 mg/kg sc weekly", "result": 60, "unit": "min"}, {"measurement": "time of maximal proteasome inhibition after dosing", "setting": "[2]; on average, sc administration", "result": "about 0.5 h"}, {"measurement": "maximal inhibition", "setting": "[2]; weekly 0.166 mg/kg dose group", "result": 78, "unit": "%"}, {"measurement": "AUC0-72 h", "setting": "[3]; [7]", "result": 36.7, "unit": "ng·h/mL"}, {"measurement": "AUC0-72 h", "setting": "[3]; day 1, 0.1 mg/kg sc bi-weekly", "result": 77.5, "unit": "ng·h/mL"}, {"measurement": "AUC0-72 h", "setting": "[3]; [8]", "result": 110, "unit": "ng·h/mL"}, {"measurement": "Cmax", "setting": "[3]; [8]", "result": 58.8, "unit": "ng/mL"}, {"measurement": "Tmax", "setting": "[3]; [8]", "result": 15, "unit": "min"}, {"measurement": "AUC0-72 h", "setting": "[3]; day 32, 0.1 mg/kg sc bi-weekly", "result": 227, "unit": "ng·h/mL"}, {"measurement": "Tmax", "setting": "[3]; day 32, 0.1 mg/kg sc bi-weekly", "result": 7.14, "unit": "min"}, {"measurement": "AUC0-72 h", "setting": "[3]; day 50, 0.166 mg/kg sc weekly", "result": 205, "unit": "ng·h/mL"}, {"measurement": "Cmax", "setting": "[3]; day 50, 0.166 mg/kg sc weekly", "result": 168, "unit": "ng/mL"}, {"measurement": "AUC0-72 h", "setting": "[3]; [9]", "result": 122, "unit": "ng·h/mL"}, {"measurement": "Cmax", "setting": "[3]; [9]", "result": 70.1, "unit": "ng/mL"}, {"measurement": "Tmax", "setting": "[3]; [9]", "result": 8.34, "unit": "min"}, {"measurement": "AUC0-72 h", "setting": "[3]; day 74, 0.1 mg/kg sc bi-weekly", "result": 211, "unit": "ng·h/mL"}, {"measurement": "Cmax", "setting": "[3]; day 74, 0.1 mg/kg sc bi-weekly", "result": 113, "unit": "ng/mL"}, {"measurement": "Tmax", "setting": "[3]; day 74, 0.1 mg/kg sc bi-weekly", "result": 9.66, "unit": "min"}, {"measurement": "Tmax", "setting": "in vivo; Cynomolgus, subcutaneous", "result": "≤ 15", "unit": "min"}, {"measurement": "Cmax", "setting": "in vivo; sc, 0.0166 mg/kg", "result": 10.7, "unit": "ng/mL"}, {"measurement": "Tmax", "setting": "in vivo; sc, 0.0166 mg/kg", "result": 8.88, "unit": "min"}, {"measurement": "Cmax", "setting": "in vivo; sc, 0.0333 mg/kg", "result": 23.7, "unit": "ng/mL"}, {"measurement": "Tmax", "setting": "in vivo; sc, 0.0333 mg/kg", "result": 6.96, "unit": "min"}, {"measurement": "Cmax", "setting": "in vivo; sc, 0.05 mg/kg", "result": 34.2, "unit": "ng/mL"}, {"measurement": "Tmax", "setting": "in vivo; sc, 0.05 mg/kg", "result": 12, "unit": "min"}]}]}
